{"source": "paper PMC2593051", "about": "“Biochemical and Genetic Characterization of PspE and GlpE, Two Single-domain Sulfurtransferases of Escherichia coli” (The Open Microbiology Journal, 2008)", "key": {"PspE (fraction PspE2) [1]": {"molecular_target": "T1, PspE (fraction PspE2) (Escherichia coli, UniProt P23857)", "T1 construct": "85 residues, 9428 Da; untagged; overexpressed from pHC4.1 (pT7-7) in E. coli BL21(DE3), freeze-thaw extract, SP cation exchange; partly persulfide/sulfonate modified at single cysteine", "T1 sequence (P23857 20-104)": "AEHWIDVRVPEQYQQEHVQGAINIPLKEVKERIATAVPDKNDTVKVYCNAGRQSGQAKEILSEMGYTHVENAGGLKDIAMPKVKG", "experiment": "chemical inactivation by cysteine reagent", "assay_type": "biochemical", "details": "covalent; active-site cysteine; fraction PspE1 more tolerant than PspE2; data not shown"}, "PspE (fraction PspE2) [2]": {"molecular_target": "T1, PspE (fraction PspE2)", "experiment": "rhodanese assay", "assay_type": "biochemical", "details": "Tris-acetate pH 8.6; for % inhibition at 0.25 M: 250000 µM, anion inhibition"}, "purified protein [3]": {"substrate": "O=S(O)(O)=S", "experiment": "purified protein", "assay_type": "biochemical, Escherichia coli", "details": "pH 8.6; 25.0 °C"}, "purified protein [4]": {"substrate": "OC(CS)C(O)CS", "experiment": "purified protein", "assay_type": "biochemical, Escherichia coli", "details": "sulfur acceptor, 4 mM or 10 mM thiosulfate, Tris-acetate pH 8.6, PspE fraction not stated"}}, "note": "Structures can show the parent of a compound that is named as a salt.", "data": [{"molecule": "O=C(O)c1cc(SSc2ccc([N+](=O)[O-])c(C(=O)O)c2)ccc1[N+](=O)[O-]", "note": "[5,5’-dithio-bis(2-nitrobenzoic acid)]", "values": [{"measurement": "chemical inactivation by cysteine reagent", "setting": "PspE (fraction PspE2) [1]", "value": "PspE1 was much more tolerant to chemical inactivation by the cysteine-modifying reagent"}]}, {"molecule": "O=P(O)(O)O", "note": "[sodium phosphate]", "values": [{"measurement": "% inhibition at 0.25 M", "setting": "PspE (fraction PspE2) [2]", "value": "~ 65%"}]}, {"molecule": "O=S(=O)(O)O", "note": "[sodium sulfate]", "values": [{"measurement": "% inhibition at 0.25 M", "setting": "PspE (fraction PspE2) [2]", "value": "~ 50%"}]}, {"molecule": "O=S(O)O", "note": "[sodium sulfite]", "values": [{"measurement": "% inhibition at 1 mM", "setting": "PspE (fraction PspE2) [2]; rhodanese product as inhibitor, data not shown", "value": "> 50", "unit": "%"}]}, {"molecule": "PspE (fraction PspE2) (Escherichia coli K-12) (protein, 85 residues, 9428 Da; untagged; overexpressed from pHC4.1 (pT7-7) in E. coli BL21(DE3), freeze-thaw extract, SP cation exchange; partly persulfide/sulfonate modified at single cysteine) AEHWIDVRVPEQYQQEHVQGAINIPLKEVKERIATAVPDKNDTVKVYCNAGRQSGQAKEILSEMGYTHVENAGGLKDIAMPKVKG", "values": [{"measurement": "Km", "setting": "purified protein [3]", "value": 2.7, "unit": "mM"}, {"measurement": "kcat", "setting": "purified protein [3]", "value": 64, "unit": "s⁻¹"}, {"measurement": "Km", "setting": "purified protein [4]", "value": 10, "unit": "mM"}]}]}
